In one assay the test system is S. marcescens W-8. Briefly: Antibacterial activity (MIC, agar dilution) against S. marcescens W-8*. Format: cell-based. The settings on record: Serratia marcescens. The procedure: (§1) According to Chemotherapy, vol. 29, No. 1, pp. 76-79 (1981), bacterium was cultured in peptone broth manufactured by Eiken Kagaku K.K. at 37° C. for 20 hours to prepare a bacterial solution of 10^8 cells/ml, and one loopful of the bacterial solution was inoculated into Heart Infusion agar medium (manufactured by Eiken Kagaku K.K.) containing a drug, cultured at 37° C. for 20 hours, after which growth of bacterium was observed. The minimum concentration at which the growth of bacterium was prevented was indicated as MIC (μg/ml).
(§2) *means that β-lactamaseproducing bacteria.
(In agar dilution the substance is mixed into plates at graded concentrations.)

In another assay the test system is E. coli TK-3. Briefly: Antibacterial activity (MIC, agar dilution) against E. coli TK-3*. Format: cell-based. The settings on record: Escherichia coli. On the procedure:
as §1, §2

The mark [1] stands for this setting: W8, S. marcescens W-8* (β-lactamase-producing bacteria), Heart Infusion agar, 37° C., 20 hours, one loopful of 10^8 cells/ml, read-out: MIC.
[2] abbreviates: TK3, E. coli TK-3* (β-lactamase-producing bacteria), Heart Infusion agar, 37° C., 20 hours, one loopful of 10^8 cells/ml, read-out: MIC.

≈ marks a conversion by molar mass, not a printed value. Where two headings read alike, the source gives them in different places.

For orientation: MIC means the least concentration at which growth counts as inhibited.

For `CON=C(C(=O)N[C@@H]1C(=O)N2C[C@@](C(=O)O)(N3CCN(N=C4SCCS4)C3=O)S[C@H]12)c1csc(N)n1` [compound 47], the MIC in the assay on S. marcescens W-8 (setting [1]) was 6.25 µg/mL (≈ 10.9 µM); against E. coli TK-3 (TK3, 20 h) it was 0.78 µg/mL (≈ 1.36 µM).

Regarding `C=CC(=O)NN1CCN([C@]2(C(=O)O)CN3C(=O)[C@@H](NC(=O)C(C(=O)O)c4ccc(O)cc4)[C@H]3S2)C1=O` (stereo partly drawn) [compound 45], the MIC against S. marcescens W-8 (W8, 20 h) is 3.13 µg/mL (≈ 6.03 µM); against E. coli TK-3 (TK3, 20 h), 3.13 µg/mL (≈ 6.03 µM).

As for `O=C(N[C@@H]1C(=O)N2C[C@@](C(=O)O)(N3CCN(N=C4SCCS4)C3=O)S[C@H]12)C(c1ccccc1)S(=O)(=O)O` (stereo partly drawn) [compound 26], the MIC was 0.39 µg/mL (≈ 0.664 µM) in the assay with S. marcescens W-8 (W8, 20 h) and at most 0.1 µg/mL in the assay with E. coli TK-3 (setting [2]).

`O=C(NN1CCN([C@]2(C(=O)O)CN3C(=O)[C@@H](NC(=O)C(C(=O)O)c4ccccc4)[C@H]3S2)C1=O)c1cc(=O)c(O)c[nH]1` (stereo partly drawn) [compound 5]: the MIC came to 3.13 µg/mL (≈ 5.34 µM) in the assay with S. marcescens W-8 (W8, 20 h) and 3.13 µg/mL (≈ 5.34 µM) against E. coli TK-3 (TK3, 20 h).

With `NS(=O)(=O)NN1CCN([C@]2(C(=O)O)CN3C(=O)[C@@H](NC(=O)C(C(=O)O)c4ccc(O)cc4)[C@H]3S2)C1=O` (stereo partly drawn) [compound 44], the MIC in the assay on S. marcescens W-8 (setting [1]) and in the assay with E. coli TK-3 (setting [2]) was 6.25 µg/mL (≈ 11.5 µM) each time.

In the case of `C=CC=NN1CCN([C@]2(C(=O)O)CN3C(=O)[C@@H](NC(=O)C(C(=O)O)c4ccc(O)cc4)[C@H]3S2)C1=O` (stereo partly drawn) [compound 18], the MIC in the assay on S. marcescens W-8 (setting [1]) was 0.1 µg/mL (≈ 0.199 µM); against E. coli TK-3 (TK3, 20 h) it was at most 0.05 µg/mL.

For `O=C(O)C(C(=O)N[C@@H]1C(=O)N2C[C@@](C(=O)O)(N3CCN(N=C4SCCS4)C3=O)S[C@H]12)c1ccccc1` (stereo partly drawn) [compound 1], the minimal inhibitory concentration (MIC) in the assay with S. marcescens W-8 (setting [1]) came out at 0.1 µg/mL (≈ 0.181 µM); in the assay with E. coli TK-3 (TK3, 20 h) it was 0.39 µg/mL (≈ 0.707 µM).

As to `CC(=O)Oc1cc(C(C(=O)N[C@@H]2C(=O)N3C[C@@](C(=O)O)(N4CCN(NC(N)=O)C4=O)S[C@H]23)S(=O)(=O)O)cc(Cl)c1OC(C)=O` (stereo partly drawn) [compound 22], the MIC came to 12.5 µg/mL (≈ 18.4 µM) with S. marcescens W-8 (setting [1]) and 6.25 µg/mL (≈ 9.2 µM) with E. coli TK-3 (setting [2]).

On to `O=C(O)C=NN1CCN([C@]2(C(=O)O)CN3C(=O)[C@@H](NC(=O)C(C(=O)O)c4ccccc4)[C@H]3S2)C1=O` (stereo partly drawn) [compound 9], for which the MIC in the assay with S. marcescens W-8 (setting [1]) was 12.5 µg/mL (≈ 24.7 µM); in the assay with E. coli TK-3 (setting [2]), 25 µg/mL (≈ 49.5 µM).

Regarding `O=C(O)C(C(=O)N[C@@H]1C(=O)N2C[C@@](C(=O)O)(N3CCN(N=C4C=CCC4)C3=O)S[C@H]12)c1ccccc1` (stereo partly drawn) [compound 50], the MIC came out at 0.1 µg/mL (≈ 0.195 µM) with S. marcescens W-8 (setting [1]) and 0.39 µg/mL (≈ 0.759 µM) against E. coli TK-3 (TK3, 20 h).

As to `O=C(O)C(C(=O)N[C@@H]1C(=O)N2C[C@@](C(=O)O)(N3CCN(NS(=O)(=O)O)C3=O)S[C@H]12)c1ccc(O)cc1` (stereo partly drawn) [compound 16], the MIC in the assay with S. marcescens W-8 (setting [1]) and in the assay on E. coli TK-3 (setting [2]) was 12.5 µg/mL (≈ 22.9 µM) each time.

For `O=C(O)C(C(=O)N[C@@H]1C(=O)N2C[C@@](C(=O)O)(N3CCN(N=CC=CCS(=O)(=O)O)C3=O)S[C@H]12)c1ccccc1` (stereo partly drawn) [compound 12], the MIC stood at 0.1 µg/mL (≈ 0.172 µM) in the assay on S. marcescens W-8 (setting [1]) and 0.78 µg/mL (≈ 1.34 µM) in the assay with E. coli TK-3 (setting [2]).

`CSC(=NN1CCN([C@]2(C(=O)O)CN3C(=O)[C@@H](NC(=O)C(C(=O)O)c4ccccc4)[C@H]3S2)C1=O)SC` (stereo partly drawn) [compound 6]: the MIC with S. marcescens W-8 (setting [1]) turned out to be 1.56 µg/mL (≈ 2.82 µM); in the assay on E. coli TK-3 (TK3, 20 h), 3.13 µg/mL (≈ 5.65 µM).

With `O=C(O)C(C(=O)N[C@@H]1C(=O)N2C[C@@](C(=O)O)(N3CCN(NC(=O)C(F)(F)F)C3=O)S[C@H]12)c1ccc(O)cc1` (stereo partly drawn) [compound 13], the MIC with S. marcescens W-8 (setting [1]) worked out at 3.13 µg/mL (≈ 5.57 µM); in the assay on E. coli TK-3 (setting [2]) it was 12.5 µg/mL (≈ 22.3 µM).

For the molecule `Cn1cc(C=NN2CCN([C@]3(C(=O)O)CN4C(=O)[C@@H](NC(=O)C(C(=O)O)c5ccccc5)[C@H]4S3)C2=O)nn1` (stereo partly drawn) [compound 46], the MIC in the assay with S. marcescens W-8 (setting [1]) was 6.25 µg/mL (≈ 11.5 µM); in the assay on E. coli TK-3 (setting [2]), 12.5 µg/mL (≈ 23 µM).

Consider `NC(=O)C(=O)NN1CCN([C@]2(C(=O)O)CN3C(=O)[C@@H](NC(=O)C(C(=O)O)c4ccccc4)[C@H]3S2)C1=O` (stereo partly drawn) [compound 8], for which the MIC is 1.56 µg/mL (≈ 3 µM) in the assay with S. marcescens W-8 (setting [1]) and 3.13 µg/mL (≈ 6.01 µM) with E. coli TK-3 (TK3, 20 h).

As to `NC(=O)C=NN1CCN([C@]2(C(=O)O)CN3C(=O)[C@@H](NC(=O)C(C(=O)O)c4ccccc4)[C@H]3S2)C1=O` (stereo partly drawn) [compound 32], the results for the MIC with S. marcescens W-8 (setting [1]) and in the assay on E. coli TK-3 (setting [2]) were 0.78 µg/mL (≈ 1.55 µM) and 1.56 µg/mL (≈ 3.09 µM), respectively.

For `CCN1CCN(C(=O)NN2CCN([C@]3(C(=O)O)CN4C(=O)[C@@H](NC(=O)C(C(=O)O)c5ccccc5)[C@H]4S3)C2=O)C(=O)C1=O` (stereo partly drawn) [compound 3], the MIC was 0.78 µg/mL (≈ 1.26 µM) with S. marcescens W-8 (W8, 20 h) and 0.78 µg/mL (≈ 1.26 µM) against E. coli TK-3 (TK3, 20 h).

Values taken from patent publication US5185330A, “Penam derivatives and salts thereof, and antibacterial agent comprising the same” (Toyama Chemical Co., Ltd., priority 1989, dated 1993).
